# In patent US5760241A, “Thiol derivatives with metallopeptidase inhibitory activity” (priority 1996, dated 1998):
# Where a name gives a salt, the structure may show the parent alone.
# Tests used:
# [1] = molecular target: T1, ACE (purified by lung rabbit, EC 3.4.15.1) (Oryctolagus cuniculus, UniProt P12822); assay: In vitro ACE-inhibitory activity (FAPGG substrate, spectrophotometric); format: biochemical; conditions: 37° C.; FAPGG 0.8 mM
# T1 construct: purchased SIGMA; host or cells: rabbit lung
# T1 sequence (P12822 34-1310): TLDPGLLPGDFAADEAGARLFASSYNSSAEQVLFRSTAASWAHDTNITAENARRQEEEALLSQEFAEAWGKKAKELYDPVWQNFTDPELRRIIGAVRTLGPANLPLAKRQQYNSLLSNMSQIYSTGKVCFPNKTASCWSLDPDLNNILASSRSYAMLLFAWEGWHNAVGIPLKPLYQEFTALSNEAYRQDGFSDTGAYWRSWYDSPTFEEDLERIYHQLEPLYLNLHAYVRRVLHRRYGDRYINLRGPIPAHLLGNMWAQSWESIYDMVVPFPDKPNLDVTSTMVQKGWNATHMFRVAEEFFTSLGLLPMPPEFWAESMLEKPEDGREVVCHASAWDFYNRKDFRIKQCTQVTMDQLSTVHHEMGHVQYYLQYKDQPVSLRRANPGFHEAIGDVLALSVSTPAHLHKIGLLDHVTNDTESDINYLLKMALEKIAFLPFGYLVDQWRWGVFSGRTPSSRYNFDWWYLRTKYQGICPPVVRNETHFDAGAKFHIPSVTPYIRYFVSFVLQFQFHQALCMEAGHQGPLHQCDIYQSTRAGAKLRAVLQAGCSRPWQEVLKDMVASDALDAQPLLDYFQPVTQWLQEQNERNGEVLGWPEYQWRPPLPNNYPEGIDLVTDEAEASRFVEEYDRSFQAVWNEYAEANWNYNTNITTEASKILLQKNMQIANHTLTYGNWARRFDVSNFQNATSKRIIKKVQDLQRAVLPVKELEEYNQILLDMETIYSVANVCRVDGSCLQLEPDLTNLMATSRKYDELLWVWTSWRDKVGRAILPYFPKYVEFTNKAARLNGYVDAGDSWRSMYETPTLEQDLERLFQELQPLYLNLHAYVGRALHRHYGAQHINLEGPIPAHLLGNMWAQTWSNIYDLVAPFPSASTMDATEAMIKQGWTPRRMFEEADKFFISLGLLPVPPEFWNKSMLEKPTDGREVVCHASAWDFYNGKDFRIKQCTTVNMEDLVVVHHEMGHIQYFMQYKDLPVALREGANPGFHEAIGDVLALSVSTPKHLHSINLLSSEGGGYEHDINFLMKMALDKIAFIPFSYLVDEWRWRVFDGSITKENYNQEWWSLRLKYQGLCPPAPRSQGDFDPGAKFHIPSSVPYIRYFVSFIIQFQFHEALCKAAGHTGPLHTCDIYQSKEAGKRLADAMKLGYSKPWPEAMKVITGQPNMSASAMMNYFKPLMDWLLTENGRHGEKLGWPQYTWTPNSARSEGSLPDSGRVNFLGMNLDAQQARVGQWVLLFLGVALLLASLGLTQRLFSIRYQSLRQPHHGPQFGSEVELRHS
# Procedure: (§1) b) ACE-inhibitory activity
# The ACE-inhibitory activity was evaluated according to the method reported in the literature by B. Holmquist et al., in Analytical Biochemistry 95, 540-548 (1979).
# […] of ACE (250 mU/ml purified by lung rabbit, EC 3.4.15.1 SIGMA) were preincubated with 50 μl of the compound of formula I or of the comparison compound in thermostated cuvettes at 37° C.
# The reaction was started by adding furylacryloylphenylalanylglycylglycine 0.8 mM (FAPGG-SIGMA).
# Contemporaneously, by using a Beckman DU-50 spectrophotometer provided with a program for calculating delta A/minutes and regression coefficients of the enzyme kinetics curves, the absorbance at 340 nm was recorded in continuo for 5 minutes.
# The percentage of the enzyme inhibition in the preparations treated with the compounds of formula I or with the comparative compounds with respect to the untreated preparations was expressed as IC50 (nM) value.
# [2] = molecular target: T2, NEP (membranes from rat kidney cortex) (Rattus norvegicus, UniProt P07861); assay: In vitro NEP-inhibitory activity in rat kidney cortex membranes ([3H][Leu5]-enkephaline substrate); format: biochemical, male Sprague-Dawley rats; conditions: 20 minutes at 30° C.; [3H][Leu5]-enkephaline 15 nM
# T2 construct: from tissue; host or cells: kidney cortex membranes of male Sprague-Dawley rats
# T2 sequence (P07861 1-750): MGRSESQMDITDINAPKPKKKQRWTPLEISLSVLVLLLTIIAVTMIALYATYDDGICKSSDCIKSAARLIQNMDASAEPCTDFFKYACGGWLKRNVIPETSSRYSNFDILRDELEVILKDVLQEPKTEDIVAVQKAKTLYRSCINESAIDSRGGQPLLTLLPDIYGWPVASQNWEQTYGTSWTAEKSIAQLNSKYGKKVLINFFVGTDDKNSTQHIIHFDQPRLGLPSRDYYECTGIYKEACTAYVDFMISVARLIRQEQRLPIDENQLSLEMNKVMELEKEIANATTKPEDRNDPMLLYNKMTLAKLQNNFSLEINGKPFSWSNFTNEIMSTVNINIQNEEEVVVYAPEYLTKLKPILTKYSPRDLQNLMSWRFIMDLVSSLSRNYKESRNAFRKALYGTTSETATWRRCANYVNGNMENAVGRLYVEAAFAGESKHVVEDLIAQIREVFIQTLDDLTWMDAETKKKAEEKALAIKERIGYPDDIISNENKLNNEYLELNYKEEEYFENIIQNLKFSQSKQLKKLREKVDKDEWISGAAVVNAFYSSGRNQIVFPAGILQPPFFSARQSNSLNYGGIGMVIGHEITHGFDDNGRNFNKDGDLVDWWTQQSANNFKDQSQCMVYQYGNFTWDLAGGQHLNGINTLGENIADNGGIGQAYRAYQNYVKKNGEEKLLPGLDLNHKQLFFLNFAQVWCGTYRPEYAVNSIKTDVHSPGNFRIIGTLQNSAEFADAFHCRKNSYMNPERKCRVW
# Procedure: (§2) a) NEP-inhibitory activity
# The NEP-inhibitory activity was evaluated in membranes from rat kidney cortex prepared according to the procedure described by T. Maeda et al. in Biochim. Biophys. Acta 1983, 731(1), 115-120.
# By working at 0°-4° C., kidneys were removed from male Sprague-Dawley rats weighing approximately 300 g.
# Cortex was carefully dissected, finely minced and suspended in a homogenization buffer (10 mM sodium phosphate pH 7.4 containing 1 mM MgCl2, 30 mM NaCl, 0.02% NaN3) 1:15 weight/volume.
# The tissue was then homogenized for 30 seconds using an Ultra-Turrax homogenizer.
# Approximately 10 ml of homogenate were layered over 10 ml of sucrose (41% weight/volume) and centrifuged at 31200 rpm for 30 minutes at 4° C. in a fixed angle rotor. The membranes were collected from the buffer/sucrose interface, washed twice with 50 mM TRIS/HCl buffer (pH 7.4) and resuspended into the same buffer for storage.
# The membranes were stored in small aliquots at -80° C. until use.
# The NEP-inhibitory activity was evaluated according to the method described by C. Llorens et al., in Eur. J. Pharmacol., 69, (1981), 113-116, as reported hereinafter.
# Aliquots of the membrane suspension prepared as above described (concentration 5 μg/ml of proteins) were preincubated in the presence of an aminopeptidase inhibitory (Bestatin--1 mM) for 10 minutes at 30° C.
# [^3 H][Leu^5 ]-enkephaline (15 nM) and buffer TRIS/HCl pH 7.4 (50 mM) were added in order to obtain a final volume of 100 μl.
# Incubation (20 minutes at 30° C.) was stopped by adding HCl 0.1M (100 μl).
# The formation of the metabolite [^3 H]Tyr-Gly-Gly was quantified by chromatography on polystyrene columns (Porapak Q).
# [3] = test system: ACE (SHR lungs); assay: Ex vivo ACE-inhibitory activity in lungs of treated SHR; parameters: species or system spontaneously hypertensive rats (SHR)
# Procedure: (§3) The ex vivo ACE/NEP-inhibitory activity of the compounds of formula I, in particular, was evaluated by considering the enzymatic activity in tissue homogenates (lung and kidney for the ACE- and NEP-inhibitory activity, respectively) from spontaneously hypertensive rats (SHR), treated with the tested compounds by intravenous or oral route.
# as §1
# The ex vivo ACE-inhibitory activity was evaluated by using a radiometric assay method, as reported in the literature by J. W. Ryan et al. in Biochem. J. (1977), 167, 501-504.
# The inhibitory activity of the compounds of formula I was evaluated in lungs of spontaneously hypertensive rats (SHR), 5 minutes after i.v. injection (0.6, 0.64 and 21 μmoles/kg) and 30 minutes, 60 minutes and 4 hours after oral administration (30 μmoles/kg) of the tested compounds.
# After the removal of the lungs from SHR, the lung tissue was homogenized and incubated for 2 hours at 37° C. in the presence of [^3 H]Hyp-Gly-Gly, as a substrate.
# The reaction was stopped by adding hydrochloric acid.
# The released radiolabelled hyppuric acid was extracted with ethyl acetate and counted by liquid scintillation spectrometry, according to conventional methods.
# The ACE-inhibitory activity of the tested compounds was expressed as percentage of ACE-inhibition in SHR lungs.
# (§4) As an example, the percentages of basal enzymatic activity obtained in the ex vivo tests after the administration of compounds 29 and 41, as representative compounds of formula I, and of the comparison compounds R-1, R-2, R-3 and R-4 are reported in the following table 2.
# [4] = test system: NEP (SHR kidneys); assay: Ex vivo NEP-inhibitory activity in kidneys of treated SHR; parameters: species or system spontaneously hypertensive rats (SHR)
# Procedure: as §3, §2
# The ex vivo NEP-inhibitory activity was evaluated according to the procedure reported in the literature by M. Orlowsky et al., in Biochemistry 1981, 20, 4942-4950.
# The inhibitory activity of the compounds of formula I was evaluated in kidneys of spontaneously hypertensive rats (SHR), 5 minutes after i.v. injection (0.6, 0.64 and 21 μmoles/kg) and 30 minutes, 60 minutes and 4 hours after oral administration (30 μmoles/kg) of the tested compounds.
# After the removal of the kidneys from SHR, the renal tissue was homogenized and incubated for 15 minutes at 37° C. in the presence of Glutaryl-Ala-Ala-Phe-2-naphthylamide (GAAP), as a substrate, and aminopeptidase M at pH 7.6.
# The reaction was stopped by adding an aqueous solution at 10% of trichloroacetic acid.
# The released 2-naphthylamine was determined by adding fast garnet dye (2 ml).
# Enzyme reaction rates were determined by measuring the increase in the optical density at 524 nm (OD524) with respect to a standard obtained with 2-naphthylamine complexed with fast garnet.
# The NEP-inhibitory activity of the tested compounds was expressed as percentage of NEP-inhibition in SHR kidneys.
# as §4
SMILES,IC50 [1],IC50 [2],"ACE-inhibition (lungs), 30 minutes ([3]; oral 30 μmoles/kg)","ACE-inhibition (lungs), 4 hours ([3]; oral 30 μmoles/kg)","NEP-inhibition (kidneys), 30 minutes ([4]; oral 30 μmoles/kg)","NEP-inhibition (kidneys), 4 hours ([4]; oral 30 μmoles/kg)",also measured
"O=C(N[C@@H](Cc1ccc(-c2ccccc2)cc1)C(=O)O)C(CS)Cc1cccnc1 (single isomer, unassigned) [compound 50, N-[2-mercaptomethyl-3-(3-pyridyl)propionyl]-(1,1'-biphenyl-4-yl)-L-alanine hydrochloride]",13 nM,2.9 nM,,,,,
"COc1cccc(CC(CS)C(=O)N[C@@H](Cc2ccc(-c3ccccc3)cc2)C(=O)O)c1 (single isomer, unassigned) [compound 42, N-[2-mercaptomethyl-3-(3-methoxyphenyl)propionyl]-(1,1'-biphenyl-4-yl)-L-alanine]",7.5 nM,16 nM,,,,,
"O=C(N[C@@H](Cc1ccc(-c2nccs2)cc1)C(=O)O)[C@@H](CS)Cc1ccccc1 [compound 29, N-[(2S)-3-mercapto-2-phenylmethylpropionyl]-4-(2-thiazolyl)-L-phenylalanine]",,,60%,45%,55%,40%,"ACE-inhibition (lungs), 5 minutes ([3]; i.v. 0.6 μmoles/kg): 15%; ACE-inhibition (lungs), 5 minutes ([3]; i.v. 21 μmoles/kg): 72%; ACE-inhibition (lungs), 60 minutes ([3]; oral 30 μmoles/kg, 60 minutes): 36%; NEP-inhibition (kidneys), 5 minutes ([4]; i.v. 0.6 μmoles/kg): 34%; NEP-inhibition (kidneys), 5 minutes ([4]; i.v. 21 μmoles/kg): 49%; NEP-inhibition (kidneys), 60 minutes ([4]; oral 30 μmoles/kg, 60 minutes): 39%"
"CC(C)C(CS)C(=O)N[C@@H](Cc1ccc(-c2ccccc2)cc1)C(=O)O (stereo partly drawn) [compound 49, N-(2-isopropyl-3-mercaptopropionyl)-(1,1'-biphenyl-4-yl)-L-alanine]",3.8 nM,1.2 nM,,,,,
"CC(CS)C(=O)N[C@@H](Cc1c[nH]c2ccccc12)C(=O)O (stereo partly drawn) [R-4, N-(3-mercapto-2-methylpropanoyl)-L-triptophan]",,,25%,10%,not active,not active,
"CC(CS)C(=O)N[C@@H](Cc1ccc(O)cc1)C(=O)O (stereo partly drawn) [R-3, N-(3-mercapto-2-methylpropanoyl)-L-tyrosine]",,,25%,20%,10%,5%,
"O=C(N[C@@H](Cc1ccc(O)cc1)C(=O)O)C(CS)Cc1ccc2c(c1)OCO2 (stereo partly drawn) [R-2, N-[3-mercapto-2-(3,4-methylenedioxyphenyl)methyl-propionyl]-(S)-tyrosine]",,,30%,25%,30%,not active,
"O=C(N[C@@H](Cc1ccccc1)C(=O)O)C(CS)Cc1ccc2c(c1)OCO2 (stereo partly drawn) [R-1, N-[3-mercapto-2-(3,4-methylenedioxyphenyl)methyl-propionyl]-(S)-phenylalanine]",,,25%,20%,5%,not active,
